Experimental data as given in patent US11566007B2, “Ras inhibitors” (Revolution Medicines, Inc., priority 2019, dated 2023).
pEC50, pIC50: −log10 of the molar value. Like-named read-outs stand apart in the source and are kept apart here.

Columns and labels:
NCI-H358 (K-Ras G12C) = assay: CellTiter-Glo cell viability assay, NCI-H358; type: cell-based, human; details: Homo sapiens, NCI-H358, 120 h, class symbols; for pIC50: NCI-H358, 5-day treatment, read-out: Additional H358 Cell Viability assay data (K-Ras G12C, IC50); for IC50: read-out: Additional H358 Cell Viability assay data (K-Ras G12C, IC50, uM), NCI-H358, 5-day treatment
Method: Note—The following protocol describes a procedure for monitoring cell viability of K-Ras mutant cancer cell lines in response to a compound of the invention. Other RAS isoforms may be employed, though the number of cells to be seeded will vary based on cell line used.
Test compounds (132.5 nL) were directly dispensed into the assay plates containing cells. […] On day 5, assay plates and their contents were equilibrated to room temperature for approximately 30 minutes. […] Luminescence was measured using the PerkinElmer Enspire. Data were normalized by the following: (Sample signal/Avg. DMSO)*100. The data were fit using a four-parameter logistic fit.

[1] = test system: NCI-H358 cells (K-Ras G12C); assay: Potency assay: pERK in NCI-H358 cells; type: cell-based, human; details: Homo sapiens, NCI-H358; H358 KRAS G12C; read-out: pERK EC50
Method: The purpose of this assay is to measure the ability of test compounds to inhibit K-Ras in cells. […] This procedure measures a decrease in cellular pERK in response to test compounds.
NCI-H358 cells were grown and maintained using media and procedures recommended by the ATCC. On the day prior to compound addition, cells were plated in 384-well cell culture plates (40 μl/well) and grown overnight in a 37° C., 5% CO2 incubator. Test compounds were prepared in 10, 3-fold dilutions in DMSO, with a high concentration of 10 mM. On the day of assay, 40 nL of test compound was added to each well of cell culture plate using an Echo550 liquid handler (LabCyte®). Concentrations of test compound were tested in duplicate. After compound addition, cells were incubated 4 hours at 37° C., 5% CO2. Following incubation, culture medium was removed and cells were washed once with phosphate buffered saline.
In some experiments, cellular pERK level was determined using the AlphaLISA SureFire Ultra p-ERK1/2 Assay Kit (PerkinElmer). Cells were lysed in 25 μL lysis buffer, with shaking at 600 RPM at room temperature. […] After a 2-hour incubation in the dark, 5 μL donor mix was added, plate was sealed, and incubated 2 hours at room temperature. Signal was read on an Envision plate reader (PerkinElmer) using standard AlphaLISA settings. Analysis of raw data was carried out in Excel (Microsoft) and Prism (GraphPad). Signal was plotted vs. the decadal logarithm of compound concentration, and IC50 was determined by fitting a 4-parameter sigmoidal concentration response model.
In other experiments, cellular pERK was determined by In-Cell Western. […] Fixed cells were washed 4 times for 5 minutes with TBS containing 0.1% Triton X-100 (TBST) and then blocked with 100 μL Odyssey blocking buffer (LI-COR) for 60 minutes at room temperature. […] Cells were washed 4 times for 5 minutes with TBST. Secondary antibody (IR-800CW rabbit, LI-COR, diluted 1:800) and DNA stain DRAQS (LI-COR, diluted 1:2000) were added and incubated 1-2 hours at room temperature. Cells were washed 4 times for 5 minutes with TBST. Plates were scanned on a Li-COR Odyssey CLx Imager. Analysis of raw data was carried out in Excel (Microsoft) and Prism (Graph Pad). Signal was plotted vs. the decadal logarithm of compound concentration, and IC50 was determined by fitting a 4-parameter sigmoidal concentration response model.

Compound	pIC50 (NCI-H358 (K-Ras G12C))	pEC50 [1]	IC50 (NCI-H358 (K-Ras G12C))
C=CC(=O)N1CC[C@H](C(=O)N(C)[C@H](C(=O)N[C@H]2Cc3cc(O)cc(c3)-c3ccc4c(c3)c(c(-c3ccccc3CCOC)n4CC)CC(C)(C)COC(=O)[C@@H]3CCCN(N3)C2=O)C2CCOCC2)C1 [Example A6]	6.00 to 7.00	> 5.30	–
C=CC(=O)N1CC[C@H](C(=O)N(C)[C@H](C(=O)N[C@H]2Cc3cc(O)cc(c3)-c3ccc4c(c3)c(c(-c3cnccc3C)n4CC)CC(C)(C)COC(=O)[C@@H]3CCCN(N3)C2=O)C(C)C)C1 [Example A77]	7.00 to 8.00	> 5.30	–
C=CC(=O)N1CC[C@@]2(CCN([C@H](C(=O)N[C@H]3Cc4cc(O)cc(c4)-c4ccc5c(c4)c(c(-c4ccccc4CCOC)n5CC)CC(C)(C)COC(=O)[C@@H]4CCCN(N4)C3=O)C(C)C)C2=O)C1 [Example A68]	6.00 to 7.00	> 5.30	–
C=CC(=O)N1CCC(F)(C(=O)N(C)[C@H](C(=O)N[C@H]2Cc3cc(O)cc(c3)-c3ccc4c(c3)c(c(-c3ccccc3CN(C)C)n4CC)CC(C)(C)COC(=O)[C@@H]3CCCN(N3)C2=O)C(C)C)CC1 [Example A20]	7.00 to 8.00	> 5.30	–
CCn1c(-c2cccnc2COC)c2c3cc(ccc31)-c1cc(O)cc(c1)C[C@H](NC(=O)[C@H](C(C)C)N(C)C(=O)C1CN(C(=O)C#CCN(C)C)C1)C(=O)N1CCC[C@H](N1)C(=O)OCC(C)(C)C2 [Example A97]	7.00 to 8.00	> 5.30	–
C=CC(=O)N1CC[C@H](C(=O)N(C)[C@H](C(=O)N[C@H]2Cc3cc(O)cc(c3)-c3ccc4c(c3)c(c(-c3ncccc3COC)n4CC)CC(C)(C)COC(=O)[C@@H]3CCCN(N3)C2=O)C(C)C)C1 [Example A84]	6.00 to 7.00	> 5.30	–
C=CC(=O)N1CC[C@H](C(=O)N(C)[C@H](C(=O)N[C@H]2Cc3cc(O)cc(c3)-c3ccc4c(c3)c(c(-c3ccncc3)n4C(C)(C)C#N)CC(C)(C)COC(=O)[C@@H]3CCCN(N3)C2=O)C(C)C)C1 [Example A86]	7.00 to 8.00	> 5.30	–
C=CC(=O)N1CC[C@H](C(=O)N(C)[C@H](C(=O)N[C@H]2Cc3cc(O)cc(c3)-c3ccc4c(c3)c(c(-c3cccc(CN(C)C)c3)n4CC)CC(C)(C)COC(=O)[C@@H]3CCCN(N3)C2=O)C(C)C)C1 [Example A30]	7.00 to 8.00	> 5.30	–
C=CC(=O)N1CC[C@H](C(=O)N(C)[C@H](C(=O)N[C@H]2Cc3cc(O)cc(c3)-c3ccc4c(c3)c(c(C3=C(COC)CCCC3)n4CC)CC(C)(C)COC(=O)[C@@H]3CCCN(N3)C2=O)C(C)C)C1 [Example A64]	7.00 to 8.00	> 5.30	–
C=CC(=O)N1C[C@H](C)[C@H](C(=O)N(C)[C@H](C(=O)N[C@H]2Cc3cc(O)cc(c3)-c3ccc4c(c3)c(c(-c3cccnc3COC)n4CC)CC(C)(C)COC(=O)[C@@H]3CCCN(N3)C2=O)C(C)C)C1 [Example A56]	–	> 5.30	< 0.01 µM
CCn1c(-c2ccccc2CN(C)C)c2c3cc(ccc31)-c1cc(O)cc(c1)C[C@H](NC(=O)[C@H](C(C)C)N(C)C(=O)[C@H]1CCN(C(=O)/C=C/CN(C)C)C1)C(=O)N1CCC[C@H](N1)C(=O)OCC(C)(C)C2 [Example A47]	7.00 to 8.00	> 5.30	–
C=CC(=O)N1CC[C@H](C(=O)N(C)[C@H](C(=O)N[C@H]2Cc3cc(O)cc(c3)-c3ccc4c(c3)c(c(-c3cncnc3)n4CC)CC(C)(C)COC(=O)[C@@H]3CCCN(N3)C2=O)C(C)C)C1 [Example A61]	7.00 to 8.00	> 5.30	–
C=CC(=O)N1CC[C@H](C(=O)N(C)[C@H](C(=O)N[C@H]2Cc3cc(O)cc(c3)-c3ccc4c(c3)c(c(-c3cccnc3CN(C)C)n4CC)CC(C)(C)COC(=O)[C@@H]3CCCN(N3)C2=O)C(C)C)C1 [Example A92]	6.00 to 7.00	> 5.30	–
C=CC(=O)N1CC[C@@]2(CCCN([C@H](C(=O)N[C@H]3Cc4cc(O)cc(c4)-c4ccc5c(c4)c(c(-c4ccccc4CCOC)n5CC)CC(C)(C)COC(=O)[C@@H]4CCCN(N4)C3=O)C(C)C)C2=O)C1 [Example A63]	6.00 to 7.00	> 5.30	–
C=CC(=O)N1CC[C@H](C(=O)N(C)[C@H](C(=O)N[C@H]2Cc3cc(OC(C)=O)cc(c3)-c3ccc4c(c3)c(c(-c3ccccc3CN(C)C)n4CC)CC(C)(C)COC(=O)[C@@H]3CCCN(N3)C2=O)C(C)C)C1 [Example A59]	–	> 5.30	0.1 to 1 µM
C=CC(=O)N1CC[C@H](C(=O)N(C)[C@H](C(=O)N[C@H]2Cc3cc(cc(O)c3F)-c3ccc4c(c3)c(c(-c3ccccc3CCOC)n4CC)CC(C)(C)COC(=O)[C@@H]3CCCN(N3)C2=O)C(C)C)C1 [Example A9]	6.00 to 7.00	> 5.30	–
C=CC(=O)N1CC[C@H](C(=O)N(C)[C@H](C(=O)N[C@H]2Cc3cc(O)cc(c3)-c3ccc4c(c3)c(c(-c3ccccc3COC)n4CC)CC(C)(C)COC(=O)[C@@H]3CCCN(N3)C2=O)C2CCCC2)C1 [Example A27]	7.00 to 8.00	> 5.30	–
C=CC(=O)N1CC[C@H](C(=O)N(C)[C@H](C(=O)N[C@H]2Cc3cc(O)cc(c3)-c3ccc4c(c3)c(c(C3=C(COC)COCC3)n4CC)CC(C)(C)COC(=O)[C@@H]3CCCN(N3)C2=O)C(C)C)C1 [Example A58]	7.00 to 8.00	> 5.30	–
C=CC(=O)N1CC[C@H](C(=O)N(C)[C@H](C(=O)N[C@H]2Cc3cc(O)cc(c3)-c3ccc4c(c3)c(c(-c3ccc5cc(CN(C)C)n(C)c5c3)n4CC)CC(C)(C)COC(=O)[C@@H]3CCCN(N3)C2=O)C(C)C)C1 [Example A35]	7.00 to 8.00	> 5.30	–
C=CC(=O)N1CC[C@H](C(=O)N(C)[C@H](C(=O)N[C@H]2Cc3cc(O)cc(c3)-c3ccc4c(c3)c(c(-c3ccc(CN5CC[C@@H](O)C5)cc3)n4CC)CC(C)(C)COC(=O)[C@@H]3CCCN(N3)C2=O)C(C)C)C1 [Example A1]	6.00 to 7.00	> 5.30	–
CCn1c(-c2cccnc2COC)c2c3cc(ccc31)-c1cc(O)cc(c1)C[C@H](NC(=O)[C@H](C(C)C)N(C)C(=O)[C@H]1CCN(C(=O)C#CCN3CCOCC3)C1)C(=O)N1CCC[C@H](N1)C(=O)OCC(C)(C)C2 [Example A95, (2S)-N-[(8S,14S)-22-ethyl-4-hydroxy-21-[2-(methoxymethyl)pyridin-3-yl]-18,18-dimethyl-9,15-dioxo-16-oxa-10,22,28-triazapentacyclo[18.5.2.1^2,^6.1^10,^14.0^23,^27]nonacosa-1(26),2,4,6(29),20,23(27),24-heptaen-8-yl]-3-methyl-2-{N-methyl-1-[(3S)-1-[4-(morpholin-4-yl)but-2-ynoyl]pyrrolidin-3-yl]formamido}butanamide]	7.00 to 8.00	> 5.30	–
C=CC(=O)N1CC[C@H](C(=O)N(C)[C@H](C(=O)N[C@H]2Cc3cc(O)cc(c3)-c3ccc4c(c3)c(c(-c3ccc(C5CCN(C)CC5)nc3)n4CC)CC(C)(C)COC(=O)[C@@H]3CCCN(N3)C2=O)C(C)C)C1 [Example A98]	7.00 to 8.00	> 5.30	–
C=CC(=O)N1CC[C@H](C(=O)N(C)[C@H](C(=O)N[C@H]2Cc3cc(O)cc(c3)-c3ccc4c(c3)c(c(-c3cccnc3N3CC(OC)C3)n4CC)CC(C)(C)COC(=O)[C@@H]3CCCN(N3)C2=O)C(C)C)C1 [Example A60]	7.00 to 8.00	> 5.30	–
CCn1c(-c2ccccc2CCOC)c2c3cc(ccc31)-c1cc(O)cc(c1)C[C@H](NC(=O)[C@H](C(C)C)N(C)C(=O)C1CCN(C(=O)/C=C/CN(C)C)CC1)C(=O)N1CCC[C@H](N1)C(=O)OCC(C)(C)C2 [Example A19]	6.00 to 7.00	> 5.30	–
